These are literature values, as cited in patent US20160222014A1, “COMPOUNDS FOR REGULATING FAK AND/OR SRC PATHWAYS” (ASANA BIOSCIENCES, LLC, priority 2013, published 2016).

The conditions of series [1]: 100 mg/kg intraperitoneal, i.p.; cited from earlier work.
Series [2] has as its system tumor FAK Tyr-397 phosphorylation. Conditions: 100 mg/kg intraperitoneal, i.p.; cited from earlier work.
Series [3] relates to 4T1 orthotopic breast carcinoma. Conditions: cited from earlier work.
The test system of series [4] is CSC population in 2 human breast cancer cell lines. Conditions: 2 human breast cancer cell lines in vitro and in xenografts; cited from earlier work. (In xenograft studies the graft and the host belong to different species.)
The test system of series [5] is MIA PaCa-2 human pancreatic tumor. Conditions: oral administration, cited from earlier work.
For series [6], the system named is panel of pancreatic cancer cell lines. Conditions: read-out: anti-proliferative IC50; cited from earlier work.
Series [7] has as its system FAK autophosphorylation at Tyrosine397 and Akt phosphorylation at Serine473. Conditions: 4T1 breast carcinoma; cited from earlier work.
In series [8] the test system is cell proliferation and apoptosis. Conditions: cited from earlier work.
The next series has as its system cell migration. Conditions: concomitant with inhibition of focal adhesion turnover; cited from earlier work.
The subject of series [9] is prostate and pancreatic cancer xenograft. Conditions: prostate and pancreatic cancer xenograft models; cited from earlier work.

For the compound `CNC(=O)c1ccccc1Nc1cc(Nc2ccc(N3CCOCC3)cc2OC)ncc1C(F)(F)F` [PND-1186], the “pharmacokinetics (PK)” value in series [1] was “promising”. In series [2], the “duration of inhibition of tumor FAK Tyr-397 phosphorylation” value is on record as 12 h. Also, the “syngeneic murine 4T1 orthotopic breast carcinoma tumor growth and spontaneous metastasis to lungs” value in [3] (mouse, in vivo) is “significantly inhibited”.
As to `CC(C)Cc1ccc([C@@H](C)C(=O)NS(C)(=O)=O)cc1` [Repertaxin], the CSC population entry in series [4] is “selectively depleted”.
Usually IC50 stands for the point on the concentration scale where inhibition reaches its midpoint. Consider `CNC(=O)c1ccccc1Nc1nc(Nc2ccc(N3CCOCC3)cc2OC)ncc1Cl` [NVP-TAE226], for which the body weight loss result in series [5] (MIA PaCa-2 model) is on record as “no body weight loss”. In series [5], the “MIA PaCa-2 human pancreatic tumor growth” value is “efficiently inhibited”. The “4T1 murine breast tumor growth and metastasis to the lung” value in series [3] (oral administration, dose-dependent) is given as “inhibited”. Moreover, the IC50 in [6] is 760 nM. Moreover, the “Inhibition of FAK autophosphorylation at Tyrosine397 and Akt phosphorylation at Serine473” value in series [7] is “observed in a dose-dependent manner”.
`CS(=O)(=O)c1cccc(CNc2nc(Nc3ccc4c(c3)CCC(=O)N4)ncc2C(F)(F)F)c1` [PF-573,228]: the “effect on cell proliferation and apoptosis” value in series [8] was “minimal to no effect”. The “chemotactic and haptotactic migration” value with cell migration is on record as “inhibited”.
With `CN(c1ncccc1CNc1nc(Nc2ccc3c(c2)CC(=O)N3)ncc1C(F)(F)F)S(C)(=O)=O` [PF-562,271, N-methyl-N-(3-(((2-((2-oxoindolin-5-yl)amino)-5-(trifluoromethyl)pyrimidin-4-yl)amino)methyl)pyridin-2-yl)methanesulfonamide], in series [9], the antitumor efficacy result is “good antitumor efficacy and tumor regression”; the toxicity result was “no observed toxicity”.
